Assay [1] is filed under the species Homo sapiens. In words: Selectivity ratio; ratio of pEC50 for human adenosine A2B receptor to pEC50 for human adenosine A3 receptor.
For assay [2], the species on record is Homo sapiens. In words: Selectivity ratio; ratio of pEC50 for human adenosine A2A receptor to pEC50 for human adenosine A3 receptor.
Assay [3] has as its target Adenosine receptors; A1 & A3 (Homo sapiens) (UniProt P30542+P0DMS8). In words: Selectivity ratio; ratio of pEC50 for human adenosine A1 receptor to pEC50 for human adenosine A3 receptor.
The target in the next assay is T1, Adenosine receptor A3 (Homo sapiens, UniProt P0DMS8).
T1 sequence (P0DMS8 whole entry): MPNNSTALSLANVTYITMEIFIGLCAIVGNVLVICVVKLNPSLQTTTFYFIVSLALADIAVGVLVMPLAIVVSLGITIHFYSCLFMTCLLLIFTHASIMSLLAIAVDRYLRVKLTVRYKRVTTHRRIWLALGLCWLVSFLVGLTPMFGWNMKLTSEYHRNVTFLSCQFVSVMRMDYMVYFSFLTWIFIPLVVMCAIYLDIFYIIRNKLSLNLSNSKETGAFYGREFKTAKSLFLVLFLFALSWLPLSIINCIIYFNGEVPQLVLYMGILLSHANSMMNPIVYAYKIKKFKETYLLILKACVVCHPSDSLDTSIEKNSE
In words: Agonist activity at human adenosine A3 receptor expressed in FlpIn-CHO cells assessed as inhibition of forskolin-induced cAMP accumulation after 30 mins by fluorescence assay. It counts as functional, cell-based. A general note: Cyclic AMP is a second messenger, typically raised through Gs and lowered through Gi signalling.

A further assay has as its target T2, Adenosine receptor A2b (Homo sapiens, UniProt P29275).
T2 sequence (P29275 whole entry): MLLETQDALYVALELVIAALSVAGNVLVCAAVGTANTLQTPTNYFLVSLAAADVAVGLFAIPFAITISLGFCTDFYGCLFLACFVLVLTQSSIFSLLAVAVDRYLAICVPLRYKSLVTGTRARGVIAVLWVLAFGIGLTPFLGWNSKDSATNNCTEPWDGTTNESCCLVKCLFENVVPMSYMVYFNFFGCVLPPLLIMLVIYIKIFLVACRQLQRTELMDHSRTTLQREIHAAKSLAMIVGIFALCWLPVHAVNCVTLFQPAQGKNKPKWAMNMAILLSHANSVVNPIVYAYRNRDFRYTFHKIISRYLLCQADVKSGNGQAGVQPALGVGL
In words: Agonist activity at human adenosine A2B receptor expressed in FlpIn-CHO cells assessed as inhibition of forskolin-induced cAMP accumulation after 30 mins by fluorescence assay. It counts as functional, cell-based.

A further assay concerns the target Adenosine receptor A2a (Homo sapiens, UniProt P29274). In words: Agonist activity at human adenosine A2A receptor expressed in FlpIn-CHO cells assessed as inhibition of forskolin-induced cAMP accumulation after 30 mins by fluorescence assay. It counts as functional, cell-based.
A further assay addresses T3, Adenosine receptor A1 (Homo sapiens, UniProt P30542).
T3 sequence (P30542 whole entry): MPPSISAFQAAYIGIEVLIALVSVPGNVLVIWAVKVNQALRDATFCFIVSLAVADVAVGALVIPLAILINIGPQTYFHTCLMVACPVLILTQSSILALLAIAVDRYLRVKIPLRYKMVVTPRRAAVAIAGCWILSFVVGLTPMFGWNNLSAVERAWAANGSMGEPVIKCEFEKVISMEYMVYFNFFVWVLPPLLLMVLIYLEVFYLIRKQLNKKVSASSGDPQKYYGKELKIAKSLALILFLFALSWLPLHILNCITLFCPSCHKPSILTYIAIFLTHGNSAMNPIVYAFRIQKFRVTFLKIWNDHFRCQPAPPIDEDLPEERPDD
In words: Agonist activity at human adenosine A1 receptor expressed in FlpIn-CHO cells assessed as inhibition of forskolin-induced cAMP accumulation after 30 mins by fluorescence assay. It counts as functional, cell-based.

Adenosine receptor A2a, sequence (P29274 whole entry): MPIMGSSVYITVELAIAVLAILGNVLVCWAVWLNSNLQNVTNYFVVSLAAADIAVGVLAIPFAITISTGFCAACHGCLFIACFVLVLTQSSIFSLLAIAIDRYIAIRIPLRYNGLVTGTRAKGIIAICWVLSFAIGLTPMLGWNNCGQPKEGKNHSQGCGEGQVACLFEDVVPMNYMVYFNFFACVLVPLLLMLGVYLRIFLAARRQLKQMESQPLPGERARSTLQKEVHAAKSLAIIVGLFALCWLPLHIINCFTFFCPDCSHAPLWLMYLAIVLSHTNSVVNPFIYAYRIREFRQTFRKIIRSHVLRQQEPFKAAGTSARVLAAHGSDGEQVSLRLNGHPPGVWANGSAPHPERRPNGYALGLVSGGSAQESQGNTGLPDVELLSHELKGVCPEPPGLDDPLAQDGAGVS

In general, EC50 refers to the midpoint of the concentration-response curve. Turning to `CCN(CC)c1nc(NC2CCCC2)c2ncn([C@@H]3O[C@H](C(=O)NC)[C@@H](O)[C@H]3O)c2n1`, the Selectivity ratio (in the assay listed under Homo sapiens [1]; in the assay filed under Homo sapiens [2]; in assay [3]) was over 4 throughout. Moreover, the EC50 at Adenosine receptor A3 is 2510 nM; at Adenosine receptor A2b, over 10000 nM; on Adenosine receptor A2a, over 10000 nM; at Adenosine receptor A1, over 10000 nM.

Regarding `CNC(=O)[C@H]1O[C@@H](n2cnc3c(NC4CCCC4)nc(NC)nc32)[C@H](O)[C@@H]1O`, the Selectivity ratio in the assay listed under Homo sapiens [1] was over 100; in the assay listed under Homo sapiens [2] it was 40; in assay [3], 4. Besides, the EC50 was 100 nM at Adenosine receptor A3, over 10000 nM on Adenosine receptor A2b, 3980 nM on Adenosine receptor A2a and 398 nM at Adenosine receptor A1.

As to `CNC(=O)[C@H]1O[C@@H](n2cnc3c(NC4CCCC4)nc(N(C)C)nc32)[C@H](O)[C@@H]1O`, the Selectivity ratio is over 16 in the assay listed under Homo sapiens [1], 8 in the assay filed under Homo sapiens [2] and over 16 in assay [3]. The EC50 on Adenosine receptor A3 is 631 nM; on Adenosine receptor A2b it was over 10000 nM; at Adenosine receptor A2a, 5010 nM; at Adenosine receptor A1, over 10000 nM.

Take `CNC(=O)[C@H]1O[C@@H](n2cnc3c(NCc4cccc(I)c4)nc(N)nc32)[C@H](O)[C@@H]1O`: the Selectivity ratio stood at 100 in the assay filed under Homo sapiens [1], 158 in the assay filed under Homo sapiens [2] and 158 in assay [3]. Besides, the EC50 at Adenosine receptor A3 was 1.58 nM; on Adenosine receptor A2b it was 158 nM; on Adenosine receptor A2a, 251 nM; at Adenosine receptor A1, 251 nM.

`CCNc1nc(N)nc2c1ncn2[C@@H]1O[C@H](C(=O)NC)[C@@H](O)[C@H]1O`: the Selectivity ratio in the assay filed under Homo sapiens [1] is 158; in the assay listed under Homo sapiens [2], over 1000; in assay [3] it was 251. The EC50 at Adenosine receptor A3 was 10 nM; on Adenosine receptor A2b it was 1580 nM; on Adenosine receptor A2a it was over 10000 nM; on Adenosine receptor A1 it was 2510 nM.

In the case of `CNC(=O)[C@H]1O[C@@H](n2cnc3c(NC4CCCC4)nc(N)nc32)[C@H](O)[C@@H]1O`, the results for the Selectivity ratio (in the assay filed under Homo sapiens [1]; in the assay listed under Homo sapiens [2]; in assay [3]) were 50, 79 and 3, respectively. In addition, the EC50 was 15.8 nM on Adenosine receptor A3, 794 nM at Adenosine receptor A2b, 1260 nM at Adenosine receptor A2a and 39.8 nM at Adenosine receptor A1.

Take `CNC(=O)[C@H]1O[C@@H](n2cnc3c(NCC(c4ccccc4)c4ccccc4)nc(N)nc32)[C@H](O)[C@@H]1O`: the Selectivity ratio in the assay filed under Homo sapiens [1] was 40; in the assay listed under Homo sapiens [2], 158; in assay [3], 79. Moreover, the EC50 is 5.01 nM on Adenosine receptor A3, 200 nM on Adenosine receptor A2b, 794 nM on Adenosine receptor A2a and 398 nM on Adenosine receptor A1.

In the case of `CCCNc1nc(N)nc2c1ncn2[C@@H]1O[C@H](C(=O)NC)[C@@H](O)[C@H]1O`, the Selectivity ratio was 501 in the assay listed under Homo sapiens [1], over 1000 in the assay filed under Homo sapiens [2] and 32 in assay [3]. Also, the EC50 at Adenosine receptor A3 is 10 nM; on Adenosine receptor A2b, 5010 nM; on Adenosine receptor A2a it was over 10000 nM; at Adenosine receptor A1, 316 nM.

Consider `CNC(=O)[C@H]1O[C@@H](n2cnc3c(NCc4cccc(I)c4)ncnc32)[C@H](O)[C@@H]1O` [IB-MECA], for which, at Adenosine receptor A2b, the EC50 was 31.6 nM.

For `CCCCNc1nc(N)nc2c1ncn2[C@@H]1O[C@H](C(=O)NC)[C@@H](O)[C@H]1O`, the Selectivity ratio was 32 in the assay listed under Homo sapiens [1], over 251 in the assay listed under Homo sapiens [2] and 20 in assay [3]. The EC50 on Adenosine receptor A3 is 39.8 nM; on Adenosine receptor A2b it was 1260 nM; on Adenosine receptor A2a, over 10000 nM; at Adenosine receptor A1, 794 nM.

Regarding `CNC(=O)[C@H]1O[C@@H](n2cnc3c(NC)nc(N)nc32)[C@H](O)[C@@H]1O`, the values for the Selectivity ratio (in the assay filed under Homo sapiens [1]; in the assay listed under Homo sapiens [2]; in assay [3]) were 316, over 2000 and 794, respectively. For the same compound, the EC50 is 5.01 nM on Adenosine receptor A3, 1580 nM at Adenosine receptor A2b, over 10000 nM at Adenosine receptor A2a and 3980 nM on Adenosine receptor A1.

Regarding `CNC(=O)[C@H]1O[C@@H](n2cnc3c(NCc4ccccc4)nc(N)nc32)[C@H](O)[C@@H]1O`, the values for the Selectivity ratio (in the assay listed under Homo sapiens [1]; in the assay filed under Homo sapiens [2]; in assay [3]) were 4, 100 and 200, respectively. In addition, the EC50 is 31.6 nM at Adenosine receptor A3, 126 nM on Adenosine receptor A2b, 3160 nM on Adenosine receptor A2a and 6310 nM at Adenosine receptor A1.

As to `CNC(=O)[C@H]1O[C@@H](n2cnc3c(NC4CCCCC4)nc(N)nc32)[C@H](O)[C@@H]1O`, the results for the Selectivity ratio (in the assay listed under Homo sapiens [1]; in the assay listed under Homo sapiens [2]; in assay [3]) were 20, 6 and 1, respectively. Also, the EC50 was 126 nM at Adenosine receptor A3, 2510 nM at Adenosine receptor A2b, 794 nM on Adenosine receptor A2a and 63.1 nM at Adenosine receptor A1.

For `CNC(=O)[C@H]1O[C@@H](n2cnc3c(NC4CCC4)nc(N)nc32)[C@H](O)[C@@H]1O`, the Selectivity ratio turned out to be 40 in the assay listed under Homo sapiens [1], 501 in the assay filed under Homo sapiens [2] and 13 in assay [3]. For the same compound, the EC50 is 5.01 nM on Adenosine receptor A3, 200 nM at Adenosine receptor A2b, 2510 nM at Adenosine receptor A2a and 63.1 nM on Adenosine receptor A1.

Turning to `CCNc1nc(NC2CCCC2)c2ncn([C@@H]3O[C@H](C(=O)NC)[C@@H](O)[C@H]3O)c2n1`, the Selectivity ratio in the assay filed under Homo sapiens [1] was over 251; in the assay listed under Homo sapiens [2], 8; in assay [3] it was 8. Moreover, the EC50 at Adenosine receptor A3 was 39.8 nM; at Adenosine receptor A2b, over 10000 nM; at Adenosine receptor A2a it was 501 nM; at Adenosine receptor A1, 501 nM.

Consider `CNC(=O)[C@H]1O[C@@H](n2cnc3c(NCCc4ccccc4)nc(N)nc32)[C@H](O)[C@@H]1O`, for which the results for the Selectivity ratio (in the assay listed under Homo sapiens [1]; in the assay filed under Homo sapiens [2]; in assay [3]) were 40, 20 and 79, respectively. The EC50 on Adenosine receptor A3 was 3.98 nM; at Adenosine receptor A2b, 158 nM; on Adenosine receptor A2a it was 79.4 nM; on Adenosine receptor A1, 316 nM.

`CNC(=O)[C@H]1O[C@@H](n2cnc3c(NCc4cccc(Cl)c4)nc(N)nc32)[C@H](O)[C@@H]1O`: the Selectivity ratio is 631 in the assay listed under Homo sapiens [1], 631 in the assay listed under Homo sapiens [2] and 501 in assay [3]. For the same compound, the EC50 is 0.631 nM at Adenosine receptor A3, 398 nM at Adenosine receptor A2b, 398 nM on Adenosine receptor A2a and 316 nM on Adenosine receptor A1.

Source of the values: ChEMBL document CHEMBL3132785, “Design, synthesis and evaluation of N6-substituted 2-aminoadenosine-5-N-methylcarboxamides as A3 adenosine receptor agonists” (Medchemcomm, 2014).
